Test results: ChEMBL document CHEMBL1914396, “Solid-state NMR analysis of interaction sites of curcumin and 42-residue amyloid β-protein fibrils” (Bioorg Med Chem, 2011)
The source made the active and inactive calls. The calls are words filed in the database; no cut-off is given here.

Assays:
[1] = Binding affinity to V12 of [13C]-labelled N-terminus amyloid beta (1 to 42) fibrils after 48 hrs by 2D-DARR spectroscopy
[2] = Binding affinity to [13C]-labelled at 17-21 positions of amyloid beta (1 to 42) fibrils after 48 hrs by 2D-DARR spectroscopy
[3] = Binding affinity to [13C]-labelled at 17-21 positions of amyloid beta (1 to 42) fibrils by NMR spectroscopy
[4] = Binding affinity to F4 of [13C]-labelled N-terminus amyloid beta (1 to 42) fibrils after 48 hrs by 2D-DARR spectroscopy
[5] = Binding affinity to G9 of [13C]-labelled N-terminus amyloid beta (1 to 42) fibrils after 48 hrs by 2D-DARR spectroscopy
[6] = Binding affinity to [13C]-labelled amyloid beta (1 to 42) fibrils assessed as change in morphology of fibrillation at 50 uM after 1 hr using uranyl acetate dye by Transmission electron microscopy
[7] = Binding affinity to A2 of [13C]-labelled N-terminus amyloid beta (1 to 42) fibrils after 48 hrs by 2D-DARR spectroscopy

Activity [1]: Active
Activity [2]: Active
Activity [3]: Active
Activity [4]: inactive
Activity [5]: inactive
Activity [6]: inactive
Activity [7]: inactive
SMILES: COc1cc(/C=C/C(=O)CC(=O)/C=C/c2ccc(O)c(OC)c2)ccc1O
